Assay results taken from PMC10539439 (Pharmacological Reports, 2023).
Values joined by “and” are separate entries in the source; they are usually repeats but may differ in a detail not shown here. Equal values may be shown once.

Assays:
[1] = Obesity induced with a high-fat diet: body weight; format: in vivo, rat; conditions: for effect on body weight (in words): vs obese control; for body weight of rat in g in particular day / change of body weight: hight-fat diet; for change of body weight: individual rats
Experimental: The experiments were carried out on male Wistar rats ([…]). Initial body weight was: 140–160 g obesity model or 190–220 g rats in which the obesity model was not induced. The animals were housed in pairs in plastic cages in constant temperature facilities exposed to a light–dark cycle; water and food were available ad libitum. The control and experimental groups consisted of six-to-eight animals each. All experiments were carried out according to the guidelines of the Jagiellonian University Animal Use and Care Committee and were approved for realization (Permissions No. 54/2012 and No. 128/2017).
Male Wistar rats were housed in pairs and fed a high-fat diet consisting of a 40% fat blend (Labofeed B with 40% lard, Morawski, Manufacturer Feed, Poland) for 14 weeks, with water available ad libitum. Control rats were fed a standard diet (Labofeed B, Morawski Manufacturer Feed, Poland). After 10 weeks, rats with obesity-induced via their diet were randomly divided into three equal groups that had the same mean body weight and were treated ip with test compounds at doses of 2 or 5 mg/kg b.w./day (high-fat diet + 4OHGuanabenz) or control group: vehicle–water 0.3 ml/kg (high-fat diet + vehicle = obesity control group) once a day in the morning between 9:00 AM and 10:00 AM for 25 days. Control rats were maintained on a standard diet, with ip administration of vehicle – water (standard diet + vehicle = control group).
The high-fat diet contained 550 kcal and the standard diet 280 kcal per 100 g.

[2] = Blood pressure, 24-h telemetric method, normotensive rats; format: in vivo, rat; conditions: telemetry, 5 mg/kg b.w., first 15 or 15 and 30 min after 1st, 7th and 14th administration, vs control
Experimental: The blood pressure of rats treated with the tested compound was measured for a 24 h period after ip treatment (5 mg/kg b.w.) with a special telemetric system Stellar (TSE-Systems, Germany).
Surgery: The operation was carried out over 30 min under sterile conditions. Rats were anaesthetized with ketamine and xylasine (intramuscular injection: 100 mg/kg and 10 mg/kg). Before surgery and for 7 days after, the animals were also treated with cefuroxime (20 mg/kg/day) via intramuscular injection and ketoprofen (5 mg/kg/day) via ip injection. […] The transmitter was sutured to the peritoneal cavity.
The rats were individually caged for 2 weeks to heal after surgical cut. The animals were then placed in pairs in cages to reduce their isolation stress. Blood pressure was measured: before ip administration of the compounds – time 0 min and 24 h thereafter.

With `Cl.N=C(N)NN=Cc1c(Cl)cc(O)cc1Cl` [4-OH-Guanabenz, 2-[(2,6-Dichloro-4-hydroxyphenyl)methylene]hydrazinecarboximidamide Hydrochloride] as the compound, how does the “effect on body weight (in words)” value ([1]; high-fat diet rats, 2 mg/kg b.w. ip, 25 days) read?
Its value is “did not cause weight loss, but significantly reduced weight gain”.

What about the “weight loss compared to the baseline weight before treatment” value ([1]; high-fat diet rats, 5 mg/kg b.w. ip once a day, 25 days) of the same compound?
Its value is “approximately 14.8%”.

What about the “effect on body weight (in words)” value ([1]; high-fat diet rats, 5 mg/kg b.w. ip, 25 days) of the same compound?
Its value is “significant decrease in body weight”.

And the “body weight of rat in g in particular day” value (“body weight of rat in g” for short) ([1]; 2mg/kg, day 1, individual rats, 2 mg/kg)?
The value was 405 g (3×) and 415 g and 410 g (2×).

What about the “body weight of rat in g” value ([1]; 2mg/kg, day 3, individual rats, 2 mg/kg) of the same compound?
Its value is 405 g (2×) and 410 g and 414 g (2×) and 406 g.

And the “body weight of rat in g” value ([1]; 2mg/kg, day 5, individual rats, 2 mg/kg)?
Its value is 409 g (2×) and 411 g and 413 g (2×) and 415 g.

And the “body weight of rat in g” value ([1]; 2mg/kg, day 7, individual rats, 2 mg/kg)?
The value was 408 g (2×) and 414 g and 412 g (2×) and 416 g.

And the “body weight of rat in g” value ([1]; 2mg/kg, day 9, individual rats, 2 mg/kg)?
The value was 406 g (2×) and 414 g and 415 g (2×) and 422 g.

And the “body weight of rat in g” value ([1]; 2mg/kg, day 11, individual rats, 2 mg/kg)?
Its value is 412 g (2×) and 413 g and 417 g (2×) and 423 g.

What about the “body weight of rat in g” value ([1]; 2mg/kg, day 13, individual rats, 2 mg/kg) of the same compound?
Its value is 409 g (2×) and 418 g and 414 g (2×) and 425 g.

And the “body weight of rat in g” value ([1]; 2mg/kg, day 15, individual rats, 2 mg/kg)?
Its value is 410 g (2×) and 422 g and 401 g (2×) and 428 g.

And the “body weight of rat in g” value ([1]; 2mg/kg, day 17, individual rats, 2 mg/kg)?
The value was 412 g (2×) and 422 g and 403 g (2×) and 430 g.

What about the “body weight of rat in g” value ([1]; 2mg/kg, day 19, individual rats, 2 mg/kg) of the same compound?
Its value is 412 g (2×) and 424 g and 407 g (2×) and 433 g.

What about the “body weight of rat in g” value ([1]; 2mg/kg, day 21, individual rats, 2 mg/kg) of the same compound?
Its value is 415 g (2×) and 429 g and 412 g (2×) and 434 g.

What about the “body weight of rat in g” value ([1]; 2mg/kg, day 23, individual rats, 2 mg/kg) of the same compound?
The value was 408 g (2×) and 434 g and 415 g (2×) and 435 g.

What about the “body weight of rat in g” value ([1]; 2mg/kg, day 25, individual rats, 2 mg/kg) of the same compound?
The value was 405 g (2×) and 432 g and 415 g (2×) and 439 g.

And the “change of body weight” value ([1]; 2mg/kg)?
The value was 34 g/25days and 5 g/25days and 0 g/25days and 17 g/25days.

And the “body weight of rat in g” value ([1]; 5mg/kg, day 1, individual rats, 5 mg/kg)?
Its value is 378 g and 415 g and 418 g and 409 g and 381 g and 457 g.

What about the “body weight of rat in g” value ([1]; 5mg/kg, day 3, individual rats, 5 mg/kg) of the same compound?
The value was 367 g and 412 g and 410 g and 387 g and 366 g and 443 g.

And the “body weight of rat in g” value ([1]; 5mg/kg, day 5, individual rats, 5 mg/kg)?
Its value is 358 g and 396 g and 405 g and 374 g and 360 g and 427 g.

What about the “body weight of rat in g” value ([1]; 5mg/kg, day 7, individual rats, 5 mg/kg) of the same compound?
Its value is 344 g and 387 g and 385 g and 364 g and 347 g and 411 g.

And the “body weight of rat in g” value ([1]; 5mg/kg, day 9, individual rats, 5 mg/kg)?
Its value is 339 g and 377 g and 376 g and 357 g and 340 g and 394 g.

What about the “body weight of rat in g” value ([1]; 5mg/kg, day 11, individual rats, 5 mg/kg) of the same compound?
Its value is 335 g and 372 g and 373 g and 350 g and 340 g and 388 g.

And the “body weight of rat in g” value ([1]; 5mg/kg, day 13, individual rats, 5 mg/kg)?
The value was 326 g and 364 g and 373 g and 348 g and 336 g and 386 g.

And the “body weight of rat in g” value ([1]; 5mg/kg, day 15, individual rats, 5 mg/kg)?
Its value is 327 g and 363 g and 377 g and 350 g and 334 g and 384 g.

And the “body weight of rat in g” value ([1]; 5mg/kg, day 17, individual rats, 5 mg/kg)?
The value was 326 g and 362 g and 384 g and 348 g and 331 g and 386 g.

And the “body weight of rat in g” value ([1]; 5mg/kg, day 19, individual rats, 5 mg/kg)?
The value was 327 g and 356 g and 377 g (2×) and 349 g and 333 g.

And the “body weight of rat in g” value ([1]; 5mg/kg, day 21, individual rats, 5 mg/kg)?
The value was 314 g and 353 g and 370 g and 334 g and 328 g and 367 g.

What about the “body weight of rat in g” value ([1]; 5mg/kg, day 23, individual rats, 5 mg/kg) of the same compound?
Its value is 310 g and 355 g and 373 g and 342 g and 328 g and 365 g.

And the “body weight of rat in g” value ([1]; 5mg/kg, day 25, individual rats, 5 mg/kg)?
The value was 315 g and 357 g and 378 g and 348 g and 325 g and 370 g.

What about the “change of body weight” value ([1]; 5mg/kg) of the same compound?
Its value is -56 g/25days and -87 g/25days and -63 g/25days and -58 g/25days and -40 g/25days and -61 g/25days.

What about the “effect on systolic and diastolic blood pressure (in words)” value [2] of the same compound?
Its value is “significantly higher”.
